Assay results reported in publication PMC5632672, “Generation of Persister Cells of Pseudomonas aeruginosa and Staphylococcus aureus by Chemical Treatment and Evaluation of Their Susceptibility to Membrane-Targeting Agents” (Frontiers in Microbiology, 2017).
Converted amounts (≈) assume the structure as drawn. Read-outs that look alike come from different tables or passages of the source. Values belong to the compound of their own block, whether it stands above or below them. Positions of bridges follow the written chain, without caps; N, C: chain ends. Non-standard residues stand in square brackets, D forms with d. Residues, ends and D or L forms follow the SMILES beside them. *: point of attachment. X1 = CC[C@H](C)CCCCC(=O)*; Dab = NCC[C@H](N)C(=O)O

Tests used:
[1] = system: Pseudomonas aeruginosa ATCC 27853; assay: MIC and MBC by standard microdilution after revival of CCCP-induced persisters
[2] = system: Pseudomonas aeruginosa ATCC 27853; assay: Induction of persistence with CCCP, survival to antibiotic treatment; settings: P. aeruginosa
[3] = system: Staphylococcus aureus ATCC 33591; assay: as above; settings: S. aureus
[4] = system: Staphylococcus aureus ATCC 33591; assay: MIC and MBC by standard microdilution after revival of CCCP-induced persisters
[5] = system: Staphylococcus aureus ATCC 33591
[6] = system: Pseudomonas aeruginosa ATCC 27853
[7] = system: Staphylococcus aureus ATCC 33591; assay: Effect of CCCP on cell viability, CFU counting; settings: S. aureus stationary-phase cultures, CCCP at concentrations up to 400 μg/mL, 3 h, 37°C, Figure 1
[8] = system: Pseudomonas aeruginosa ATCC 27853; assay: Effect of CCCP on cell viability, CFU counting; settings: P. aeruginosa stationary-phase cultures, CCCP at concentrations up to 200 μg/mL, 3 h, 37°C, Figure 1
[9] = system: Staphylococcus aureus ATCC 33591; assay: Isothermal microcalorimetry, bacterial heat production; settings: S. aureus stationary-phase culture incubated with CCCP 400 μg/mL, recorded for 24 h, Figure 3
[10] = system: Staphylococcus aureus ATCC 33591; type: cell-based; settings: S. aureus, CCCP 400 μg/mL 3 h, washed, fresh LB
[11] = system: Staphylococcus aureus ATCC 33591; assay: Flow cytometry, oxidoreductase activity with RedoxSensor Green; type: cell-based; settings: S. aureus, 3-h exposure to CCCP 400 μg/mL, Figure 4B
Experimental: (§1) The metabolic activity of CCCP-induced PCs of P. aeruginosa and S. aureus was also evaluated by determining the oxidoreductase activity through flow cytometry. […] Then, bacterial suspensions were stained with the RedoxSensor^TM Green reagent (RSG) (BacLight^TM RedoxSensor^TM Green Vitality Kit, Thermo Fisher Scientific, Waltham, MA, United States) according to the manufacturer’s instructions. Briefly, 1 mL of the bacterial suspension was incubated with 1 μL (P. aeruginosa) or 0.1 μL (S. aureus) of 1 mM RSG for 10 min at 37°C in the dark. Stained samples were analyzed with a BD Accuri C6 flow cytometer (BD Biosciences, Mountain View, CA, United States) equipped with a 488 nm laser and a 533/30 nm optical filter. Data were collected and analyzed with BD Accuri C6 software (BD Biosciences), and results were plotted as cell counts versus fluorescence intensity.

[12] = system: Pseudomonas aeruginosa ATCC 27853; assay: as above; type: cell-based; settings: P. aeruginosa, 3-h exposure to CCCP 200 μg/mL, Figure 4A
Experimental: as §1

[13] = system: Pseudomonas aeruginosa ATCC 27853; assay: Revival assay of CCCP-induced persisters; type: cell-based; settings: P. aeruginosa, CCCP 200 μg/mL 3 h, washed, fresh LB
[14] = system: Pseudomonas aeruginosa ATCC 27853; assay: Isothermal microcalorimetry, bacterial heat production; type: cell-based; settings: P. aeruginosa stationary-phase culture incubated with CCCP 200 μg/mL, recorded for 24 h, Figure 3
[15] = ATCC27853, read-out: MBC, CCCP-pretreated
[16] = ATCC27853, read-out: MBC, CCCP-untreated
[17] = ATCC33591, 24 h, read-out: MIC, CCCP-untreated
[18] = ATCC33591, read-out: MBC, CCCP-pretreated
[19] = ATCC33591, read-out: MBC, CCCP-untreated
[20] = ATCC33591, read-out: MIC, CCCP-pretreated
[21] = CCCP 200 μg/mL for 3 h, then meropenem 10 μg/mL 3 h, Figure 2C
[22] = CCCP 400 μg/mL for 3 h, then gentamicin 10 μg/mL 3 h, Figure 2F

Compound: C[C@@H](O)[C@H]1C(=O)N2C(C(=O)O)=C(S[C@@H]3CN[C@H](C(=O)N(C)C)C3)[C@H](C)[C@H]12 [Meropenem, meropenem]
MBC [1, 15]: 10 µg/mL (≈ 26.1 µM) | MBC [1, 16]: 10 µg/mL (≈ 26.1 µM)

Compound: O=C(O)c1cn(C2CC2)c2cc(N3CCNCC3)c(F)cc2c1=O [Ciprofloxacin]
percentage of stationary-phase culture surviving antibiotic exposure, no CCCP pretreatment ([2]; ciprofloxacin 5 μg/mL, 3 h, SPB/LB, Figure 2A): less than 0.01% | MIC ([1]; ATCC27853, 24 h, read-out: MIC, CCCP-untreated): 0.5 µg/mL (≈ 1.51 µM) | MBC [1, 15]: 1 µg/mL (≈ 3.02 µM) | MBC [1, 16]: 1 µg/mL (≈ 3.02 µM) | MIC ([1]; ATCC27853, read-out: MIC, CCCP-pretreated): 0.5 µg/mL (≈ 1.51 µM)

MIC [4, 17]: 0.5 µg/mL (≈ 1.38 µM) | MIC [4, 20]: 0.5 µg/mL (≈ 1.38 µM)
Compound: C[C@H]1COc2c(N3CCN(C)CC3)c(F)cc3c(=O)c(C(=O)O)cn1c23 [Levofloxacin, levofloxacin]
percentage of initial inoculum tolerating antibiotic treatment, no CCCP pretreatment ([3]; levofloxacin 2.5 μg/mL, 3 h, SPB/LB, Figure 2D): approximately 0.5% | MBC [4, 18]: 0.5 µg/mL (≈ 1.38 µM) | MBC [4, 19]: 0.5 µg/mL (≈ 1.38 µM)

MIC [4, 17]: 20 µg/mL (≈ 41.9 µM) | MIC [4, 20]: 20 µg/mL (≈ 41.9 µM)
Compound: CNC(C)C1CCC(N)C(OC2C(N)CC(N)C(OC3OCC(C)(O)C(NC)C3O)C2O)O1 (centres unmarked) [Gentamicin]
MBC [4, 18]: 40 µg/mL (≈ 83.8 µM) | MBC [4, 19]: 40 µg/mL (≈ 83.8 µM)

Compound: CCCCCCCCCC(=O)N[C@@H](Cc1c[nH]c2ccccc12)C(=O)N[C@H](CC(N)=O)C(=O)N[C@@H](CC(=O)O)C(=O)N[C@@H]1C(=O)NCC(=O)N[C@@H](CCCN)C(=O)N[C@@H](CC(=O)O)C(=O)N[C@H](C)C(=O)N[C@@H](CC(=O)O)C(=O)NCC(=O)N[C@H](CO)C(=O)N[C@@H]([C@H](C)CC(=O)O)C(=O)N[C@@H](CC(=O)c2ccccc2N)C(=O)O[C@@H]1C [Daptomycin]
MBC, S. aureus CCCP-pretreated ([5]; ATCC 33591, 3 h): 112 µM (≈ 182 µg/mL) | MBC, S. aureus CCCP-untreated ([5]; ATCC 33591, 3 h): 7 µM (≈ 11.3 µg/mL) | fold higher concentration required to kill CCCP-induced persisters than untreated bacteria (MBC) ([5]; S. aureus): 16 fold | bactericidal concentration against persisters relative to those of the tested AMPs ([5]; S. aureus CCCP-pretreated, Figure 6B): 32 to 64 fold

Compound: CC[C@H](C)CCCCC(=O)N[C@@H](CCN)C(=O)N[C@H](C(=O)N[C@@H](CCN)C(=O)N[C@H]1CCNC(=O)[C@H]([C@@H](C)O)NC(=O)[C@H](CCN)NC(=O)[C@H](CCN)NC(=O)[C@H](CC(C)C)NC(=O)[C@@H](CC(C)C)NC(=O)[C@H](CCN)NC1=O)[C@@H](C)O [Colistin, colistin] (X1-[Dab]T[Dab][Dab][Dab][dL]L[Dab][Dab]T; lactam 4-C (inferred); N-terminus assumed)
concentration eradicating persister-enriched cultures to the limit of detection (complete killing) [6]: 3.5 µM | MBC, P. aeruginosa CCCP-pretreated ([6]; ATCC 27853, 3 h): 3.5 µM (≈ 4.09 µg/mL) | MBC, P. aeruginosa CCCP-untreated ([6]; ATCC 27853, 3 h): 1.75 µM (≈ 2.05 µg/mL) | fold increase in MBC against CCCP-pretreated vs CCCP-untreated bacteria ([6]; P. aeruginosa): 2 fold

Compound: N#CC(C#N)=NNc1cccc(Cl)c1 [CCCP, Carbonyl cyanide m-chlorophenylhydrazone]
effect on cell viability [7]: only a minor effect on cell viability | fold increase in the number of persister-like cells vs untreated control ([2]; CCCP 200 μg/mL for 3 h, then ciprofloxacin 5 μg/mL 3 h, Figure 2A): 5000 fold | fold increase in the percentage of bacteria tolerant to meropenem [2, 21]: 200 fold | percentage of starting bacterial population tolerant to meropenem after CCCP pretreatment [2, 21]: 35% | effect on cell viability [8]: did not exert a significant killing effect | basal heat production [9]: < 5 μWh | lag phase before resuming replication at a normal rate, optical density ([10]; OD600, Figure 5D): approximately 1 h | delay in heat production after CCCP removal (time of maximum heat production) ([10]; microcalorimetry, Figure 5C): 1 h | fold increase in survival to gentamicin [3, 22]: approximately 500 times | percentage of cells becoming persisters (surviving gentamicin) after CCCP pretreatment [3, 22]: 20% | percentage of initial population surviving levofloxacin exposure after CCCP pretreatment ([3]; CCCP 400 μg/mL for 3 h, then levofloxacin 2.5 μg/mL 3 h, Figure 2D): approximately 60% | reduction in RSG fluorescence vs untreated control [11]: approximately three | reduction in RSG fluorescence vs untreated control [12]: approximately three | lag phase before resuming replication at a normal rate, optical density ([13]; OD600, Figure 5B): approximately 1 h | time lag in heat production after CCCP removal (time of maximum heat production) ([13]; microcalorimetry, Figure 5A): 1.5 h | basal heat production [14]: < 5 μWh

Compound: [WKKIRVRLSA]2-K-8Aoc-NH2 [Den-SB056]
MBC, P. aeruginosa CCCP-pretreated ([6]; persister-enriched cultures (CCCP 200 μg/mL, 3 h), SPB/LB, 1 × 10^6 CFU/mL, 3 h, 37°C, CFU counting): 1.75 µM | MBC, P. aeruginosa CCCP-untreated ([6]; stationary-phase cultures, CCCP-untreated, SPB/LB, 1 × 10^6 CFU/mL, 3 h, 37°C, CFU counting): 0.87 µM | MBC, S. aureus CCCP-pretreated ([5]; persister-enriched cultures (CCCP 400 μg/mL, 3 h), SPB/LB (daptomycin: deionized water with 1% LB and 75 μg/mL CaCl2), 1 × 10^6 CFU/mL, 3 h, 37°C, CFU counting): 1.75 µM | MBC, S. aureus CCCP-untreated ([5]; stationary-phase cultures, CCCP-untreated, SPB/LB (daptomycin: deionized water with 1% LB and 75 μg/mL CaCl2), 1 × 10^6 CFU/mL, 3 h, 37°C, CFU counting): 1.75 µM
